Data set [1] is described as follows: Pharmacokinetic investigations, dog. The data set is classed as in vivo, dogs. Conditions: plasma, po, 1 mg/kg p.o., read-out: Bioavailability following oral administration. As for the experimental part: (§1) Pharmacokinetic data were determined after administering various substances i.v. or p.o. as solutions to mice, rats and dogs. For this, blood samples were collected up to 24 hours after administration. The concentrations of the unaltered substance were determined by bioanalytical methods (HPLC or HPLC-MS) in the plasma samples which were obtained from the blood samples. Pharmacokinetic parameters were subsequently ascertained from the plasma concentration time courses which had been obtained in this way. The following Table 2 gives the bioavailability in the different species.

For a further data set, the target named is T1, adenosine A1 receptors (Homo sapiens, UniProt P30542).
T1 construct: expressed in transfected cells; host or cells: CHO (Chinese Hamster Ovary)
T1 sequence (P30542 1-326): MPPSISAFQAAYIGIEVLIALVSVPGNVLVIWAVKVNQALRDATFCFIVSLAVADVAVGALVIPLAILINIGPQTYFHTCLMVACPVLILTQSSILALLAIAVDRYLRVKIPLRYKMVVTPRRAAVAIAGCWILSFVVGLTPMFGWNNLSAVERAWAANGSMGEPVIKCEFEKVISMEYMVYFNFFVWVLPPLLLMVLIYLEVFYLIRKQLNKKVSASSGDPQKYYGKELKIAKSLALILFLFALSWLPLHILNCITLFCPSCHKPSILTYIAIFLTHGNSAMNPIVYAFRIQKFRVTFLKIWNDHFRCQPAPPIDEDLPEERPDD
The experiment in a line: Adenosine agonism indirectly by way of gene expression (luciferase test), A1 cells. Conditions: percent following prestimulation of adenylate cyclase with 1 μ molar forskolin (=100%), agonists give <100%. The format is cell-based. The source says: (§2) Cells of the CHO (Chinese Hamster Ovary) permanent cell line are transfected stably with the cDNA for the adenosine receptor subtypes A1, A2a and A2b. The adenosine A1 receptors are coupled to the adenylate cyclase by way of Gi proteins, while the adenosine A2a and A2b receptors are coupled by way of Gs proteins. In correspondence with this, the formation of cAMP in the cell is inhibited or stimulated, respectively. After that, expression of the luciferase is modulated by way of a cAMP-dependent promoter. The luciferase test is optimized, with the aim of high sensitivity and reproducibility, low variance and good suitability for implementation on a robot system, by varying several test parameters, such as cell density, duration of the growth phase and the test incubation, forskolin concentration and medium composition. The following test protocol is used for pharmacologically characterizing cells and for the robot-assisted substance test screening:
(§3) The stock cultures are grown, at 37° C. and under 5% CO2, in DMEM/F12 medium containing 10% FCS (foetal calf serum) and in each case split 1:10 after 2–3 days. The test cultures are seeded in 384-well plates at the rate of from 1 000 to 3 000 cells per well and grown at 37° C. for approx. 48 hours. […] After that, 35 μl of a solution which is composed of 50% lysis reagent (30 mM disodium hydrogenphosphate, 10% glycerol, 3% TritonX100, 25 mM TrisHCl, 2 mM dithiothreitol (DTT), pH 7.8) and 50% luciferase substrate solution (2.5 mM ATP, 0.5 mM luciferin, 0.1 mM coenzyme A, 10 mM tricine, 1.35 mM magnesium sulphate, 15 mM DTT, pH 7.8) are added to the test cultures, the plates are shaken for approx. 1 minute and the luciferase activity is measured using a camera system.
(§4) The table gives the % values of the corresponding reference stimulus. The measured values for the A2a and A2b receptors are values in percent of the maximum stimulation achieved by NECA; the measured values for the A1 receptor are values in percent following direct prestimulation of the adenylate cyclase with 1μ molar forskolin (corresponds to the 100% value).

Another data set concerns the target T2, adenosine A2a receptors (Homo sapiens, UniProt P29274).
T2 construct: expressed in transfected cells; host or cells: CHO (Chinese Hamster Ovary)
Nature of the data set: Adenosine agonism indirectly by way of gene expression (luciferase test), A2a cells. The format is cell-based. Conditions: percent of the maximum stimulation achieved by NECA.
Text: as §2, §3, §4

A short description of data set [2]: Pharmacokinetic investigations, rat. The format is in vivo, rats. The conditions noted are these: plasma, po, 1 mg/kg p.o., read-out: Bioavailability following oral administration. As to the method:
as §1

Another data set deals with T3, adenosine A2b receptors (Homo sapiens, UniProt P29275).
T3 construct: expressed in transfected cells; host or cells: CHO (Chinese Hamster Ovary)
T3 sequence (P29275 1-332): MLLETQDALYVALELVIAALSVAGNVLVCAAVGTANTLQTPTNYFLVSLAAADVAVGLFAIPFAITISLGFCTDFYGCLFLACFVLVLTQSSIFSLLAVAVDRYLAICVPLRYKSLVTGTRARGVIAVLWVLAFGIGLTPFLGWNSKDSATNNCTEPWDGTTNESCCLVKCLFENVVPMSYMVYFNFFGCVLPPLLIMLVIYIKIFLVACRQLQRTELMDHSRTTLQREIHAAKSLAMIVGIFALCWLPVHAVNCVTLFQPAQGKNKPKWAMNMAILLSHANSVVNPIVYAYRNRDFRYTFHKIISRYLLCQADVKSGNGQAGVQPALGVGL
The experiment in a line: Adenosine agonism indirectly by way of gene expression (luciferase test), A2b cells. The format is cell-based. The conditions noted are these: percent of the maximum stimulation achieved by NECA.
Text: as §2, §3, §4

A short description of data set [3]: Pharmacokinetic investigations, mouse. The format is in vivo, mice. Conditions: plasma, po, 1 mg/kg p.o., read-out: Bioavailability following oral administration. As for the experimental part:
as §1

T2 sequence (P29274 whole entry): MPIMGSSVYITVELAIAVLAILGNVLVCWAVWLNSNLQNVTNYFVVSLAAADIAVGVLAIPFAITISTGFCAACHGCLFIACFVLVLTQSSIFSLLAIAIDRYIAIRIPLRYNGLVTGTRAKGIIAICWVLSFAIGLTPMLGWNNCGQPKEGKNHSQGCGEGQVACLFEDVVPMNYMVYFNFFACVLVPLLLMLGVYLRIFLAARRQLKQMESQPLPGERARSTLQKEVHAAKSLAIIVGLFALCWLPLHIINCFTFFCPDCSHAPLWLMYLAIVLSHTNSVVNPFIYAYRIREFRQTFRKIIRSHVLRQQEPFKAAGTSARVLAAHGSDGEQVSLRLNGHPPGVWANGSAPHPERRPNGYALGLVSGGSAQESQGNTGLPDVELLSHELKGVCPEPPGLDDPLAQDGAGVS

In the case of `CC(=O)Nc1ccc(-c2c(C#N)c(N)nc(SCc3ccccn3)c2C#N)cc1` [Example 1, N-(4-{2-Amino-3,5-dicyano-6-[(2-pyridinylmethyl)sulphanyl]-4-pyridinyl}-phenyl)acetamide], the bioavailability turned out to be 48.2% in data set [1], 4.6% in data set [2] and 22.1% in data set [3]. Moreover, the “Stimulation of adenosine receptors, A1, % of the reference stimulus” value worked out at 44% on adenosine A1 receptors (0.3 nmol compound), 9% at adenosine A1 receptors (1 nmol compound) and 5% at adenosine A1 receptors (10 nmol compound). Moreover, the “Stimulation of adenosine receptors, A2a, % of the reference stimulus” value at adenosine A2a receptors (0.3 nmol compound) was determined as 1%; at adenosine A2a receptors (1 nmol compound), 24%; on adenosine A2a receptors (10 nmol compound), 57%. For the same compound, the “Stimulation of adenosine receptors, A2b, % of the reference stimulus” value at adenosine A2b receptors (0.3 nmol compound) was 29%; at adenosine A2b receptors (1 nmol compound) it was 64%; at adenosine A2b receptors (10 nmol compound), 88%.
